Values quoted from earlier work, collected in publication PMC8172013, “Carboxylesterase Notum Is a Druggable Target to Modulate Wnt Signaling” (Journal of Medicinal Chemistry, 2021).
Where two headings read alike, the source gives them in different places. Blank lines part the entries; values can stand above or below the compound they belong to.

Assays:
Notum [1] = molecular target: T1, Notum (Homo sapiens, UniProt Q6P988); settings: OPTS assay
T1 sequence (Q6P988 20-496): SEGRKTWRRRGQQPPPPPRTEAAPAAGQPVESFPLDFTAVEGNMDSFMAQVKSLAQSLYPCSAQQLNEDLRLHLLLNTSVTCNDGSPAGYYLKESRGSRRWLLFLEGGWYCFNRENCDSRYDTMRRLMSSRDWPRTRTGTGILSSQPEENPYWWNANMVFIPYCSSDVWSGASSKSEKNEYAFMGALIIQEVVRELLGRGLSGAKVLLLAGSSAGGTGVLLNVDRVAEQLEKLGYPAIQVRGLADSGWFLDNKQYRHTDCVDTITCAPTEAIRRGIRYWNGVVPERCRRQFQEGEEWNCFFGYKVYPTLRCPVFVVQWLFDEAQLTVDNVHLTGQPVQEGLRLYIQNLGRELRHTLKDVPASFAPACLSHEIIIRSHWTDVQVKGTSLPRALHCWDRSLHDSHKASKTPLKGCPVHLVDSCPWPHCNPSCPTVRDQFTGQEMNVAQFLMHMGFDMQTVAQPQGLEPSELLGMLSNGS

Notum [2] = molecular target: T1, Notum
Notum [3] = molecular target: T1, Notum; settings: TCF/LEF assay
[4] = mouse, 10 mg/kg po
bone formation = system: bone formation; set-up: method as in PMID 19072540, PMID 19932972; settings: ex vivo model of bone formation
[5] = system: midshaft femur cortical thickness; settings: mice, 3, 10, 30 mg/kg po daily, 25 days

Compound: C#CCN1CCN(C(=O)ON2C(=O)C3CN(Cc4ccc(Cl)cc4)CCN3C2=O)c2ccccc21 (centres unmarked) [ABC99yne]
IC50 (Notum [2]; stated in words): sub-micromolar

Compound: Cc1csc2c(SCC(=O)O)ncnc12 [Compound 36]
IC50 (Notum [1]): 190 nM

Compound: Cc1cc(C(=O)O)c(C)n1C1CC1 [Compound 58]
IC50 (Notum [1]): 6300 nM

Compound: CCCc1sc2ncnc(SCC(=O)O)c2c1Cl [Compound 38]
EC50 (Notum [3]): ~100 nM

Compound: O=C(c1ccc(Cl)cc1)N1CCN2C(=O)N(OC(=O)N3CCOc4ccccc43)C(=O)C2C1 (centres unmarked) [ABC101]
EC50 (Notum [3]): > 5000 nM | IC50 (Notum [2]; competitive gel-based ABPP, read-out: Notum IC50): > 10000 nM

Compound: CC(C)(C)NC(=O)N1CCC[C@H]1C(=O)N1CCC(NS(=O)(=O)c2ccc(S(=O)(=O)c3ccccc3)cc2C(F)(F)F)CC1 [WAY-362692]
increase in total bone area (bone formation): 75%

Compound: O=C(O)CSc1ncnc2c(C3CC3)c(Cl)sc12 [Compound 26]
midshaft femur cortical thickness [5]: increases in midshaft femur cortical thickness at all doses tested

Compound: Cc1sc2ncnc(SCC(=O)O)c2c1Cl [Compound 37]
EC50 (Notum [3]): ~100 nM

Continued, values first:

IC50 (Notum [1]): 4200 nM
Compound: O=c1[nH]nc(C2CCN(c3ccc(Cl)c(C(F)(F)F)c3)C2)o1 (centres unmarked) [Compound 63]

IC50 (Notum [1]): 150 nM
Compound: Cc1cc(C(=O)O)c(C)n1-c1cccc(C(C)C)c1F [Compound 60]

IC50 (Notum [1]): 260 nM
Compound: O=C(C1CCN(c2ccc(Cl)c(C(F)(F)F)c2)C1)N1CC(F)(F)C1 (centres unmarked) [Compound 62]

IC50 (Notum [1]): 2.4 nM | plasma exposure [4]: low plasma exposure
Compound: Cc1c(Cl)sc2ncnc(SCC(=O)N3CC(=O)N(C)C3)c12 [Compound 40]
